Assay type in all cases: cell-based
Experiment [1] addresses T1, W1282L-CFTR (Homo sapiens, UniProt P13569, W1282L).
T1 construct: introduced into full-length CFTR cDNA in the vector pcDNA3.1/Zeo (+); expressed in transfected cells
Kind of experiment: Short-circuit current in FRT cells expressing W1282L-CFTR. Particulars: 20 µM forskolin, 5 µM VX-770, 20 µM ASP-11. The method, then: (§1) Figure 1 Co-potentiator ASP-11 activity in minimal function CFTR mutants in transfected FRT cells. (A) Structure of ASP-11. (B) Location of minimal function CFTR mutants studied herein. (C) Representative short-circuit current data in FRT cells expressing I1234del-CFTR, Q1313X-CFTR and S492F-CFTR in response to 20 µM forskolin (fsk), 5 µM VX-770, 20 µM ASP-11 and 10 μM CFTRinh-172. As indicated, cells were treated with 3 µM VX-809 for 18–24 h prior to measurements. (n = 3) (D). Representative short-circuit current data in FRT cells expressing predicted W1282X-CFTR read-through products W1282L-CFTR, W1282R-CFTR and W1282C-CFTR (without and with VX-809 pretreatment) (n = 3). MSD, membrane spanning domain; NBD, nucleotide binding domain; R, regulatory domain.
(§2) Compounds that promote read-through of PTCs to generate full-length CFTR have shown limited efficacy in cell culture studies[15]–[17]. Though the read-through drug ataluren (PTC124) was ineffective in clinical trials, newer compounds are in development. We investigated the ability of ASP-11 to activate chloride current in predicted W1282X-CFTR read-through products. […] FRT cell lines were generated that stably expressing W1282L-, W1282C- and W1282R-CFTR.
(§3) Short-circuit current was measured on cells cultured on Snapwell clear permeable supports (Corning) as described[10],[11]. […]

Experiment [2] deals with T2, W1282C-CFTR (Homo sapiens, UniProt P13569, W1282C).
T2 construct: introduced into full-length CFTR cDNA in the vector pcDNA3.1/Zeo (+); expressed in transfected cells
T2 sequence (P13569 whole entry W1282C): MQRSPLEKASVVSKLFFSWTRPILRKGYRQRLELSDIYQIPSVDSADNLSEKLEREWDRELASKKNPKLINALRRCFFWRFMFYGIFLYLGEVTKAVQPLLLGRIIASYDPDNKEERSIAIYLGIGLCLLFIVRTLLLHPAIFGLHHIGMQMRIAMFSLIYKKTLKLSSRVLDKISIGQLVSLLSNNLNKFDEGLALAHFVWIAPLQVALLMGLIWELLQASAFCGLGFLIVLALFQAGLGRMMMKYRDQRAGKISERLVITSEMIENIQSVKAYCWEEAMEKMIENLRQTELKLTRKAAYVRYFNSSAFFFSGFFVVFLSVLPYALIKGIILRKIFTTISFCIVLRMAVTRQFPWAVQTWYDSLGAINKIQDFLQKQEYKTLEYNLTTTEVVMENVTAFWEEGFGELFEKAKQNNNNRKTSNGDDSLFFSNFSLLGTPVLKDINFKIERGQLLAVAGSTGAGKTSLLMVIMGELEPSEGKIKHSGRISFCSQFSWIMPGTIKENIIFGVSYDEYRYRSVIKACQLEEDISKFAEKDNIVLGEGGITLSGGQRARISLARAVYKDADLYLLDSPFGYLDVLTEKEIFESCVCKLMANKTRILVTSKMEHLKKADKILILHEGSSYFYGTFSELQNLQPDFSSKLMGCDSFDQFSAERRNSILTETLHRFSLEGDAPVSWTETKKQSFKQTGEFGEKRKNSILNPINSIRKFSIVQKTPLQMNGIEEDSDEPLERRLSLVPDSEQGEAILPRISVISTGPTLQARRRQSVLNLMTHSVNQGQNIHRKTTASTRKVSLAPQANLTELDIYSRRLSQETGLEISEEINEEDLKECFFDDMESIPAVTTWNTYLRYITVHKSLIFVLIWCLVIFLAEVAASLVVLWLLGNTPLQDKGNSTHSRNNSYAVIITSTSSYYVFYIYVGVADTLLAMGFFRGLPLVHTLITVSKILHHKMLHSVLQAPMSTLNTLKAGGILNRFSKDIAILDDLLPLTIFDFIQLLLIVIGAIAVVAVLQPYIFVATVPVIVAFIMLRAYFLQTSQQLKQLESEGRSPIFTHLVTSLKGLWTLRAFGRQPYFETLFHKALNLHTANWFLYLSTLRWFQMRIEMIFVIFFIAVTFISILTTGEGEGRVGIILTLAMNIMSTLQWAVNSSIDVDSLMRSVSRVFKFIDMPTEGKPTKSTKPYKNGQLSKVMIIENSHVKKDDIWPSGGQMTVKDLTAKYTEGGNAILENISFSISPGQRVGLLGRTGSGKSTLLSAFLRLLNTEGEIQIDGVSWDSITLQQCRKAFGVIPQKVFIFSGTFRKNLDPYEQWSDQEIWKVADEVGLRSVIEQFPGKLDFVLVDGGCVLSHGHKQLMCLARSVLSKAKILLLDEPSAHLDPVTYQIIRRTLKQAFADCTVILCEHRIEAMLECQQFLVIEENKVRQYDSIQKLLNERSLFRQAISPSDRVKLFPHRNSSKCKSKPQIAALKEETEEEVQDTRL
In words: Short-circuit current in FRT cells expressing W1282C-CFTR. Particulars: 20 µM forskolin, 5 µM VX-770, 20 µM ASP-11. The method, then: as §1, §2, §3

Experiment [3] addresses T3, R1162X-CFTR (Homo sapiens, UniProt P13569).
T3 construct: expressed in transfected cells; host or cells: Fischer rat thyroid (FRT) cells; gift from Drs; Andras Rab and Jeong Hong (Emory University)
Kind of experiment: Short-circuit current in FRT cells expressing R1162X-CFTR. Particulars: 5 µM VX-770, 20 µM ASP-11, 3 µM VX-809 overnight. The procedure: (§4) As shown in Fig. 1C and summarized in Fig. 2, ASP-11 acted in synergy with VX-770 to increase chloride current in FRT cells expressing the NBD2 mutations I1234del- and Q1313X-CFTR by ~3–9-fold compared to VX-770. I1234del- and Q1313X-CFTR-expressing cells were also treated with VX-809 for 24 hours (to consider the effect of available CFTR therapeutics) with 2–3-fold greater currents observed.
Figure 2 Summary of short-circuit current responses to modulators for CFTR mutants in transfected FRT cells. Responses to indicated CFTR mutants with 20 μM forskolin, 5 µM VX-770, 20 µM ASP-11 (with or without 3 µM VX-809 overnight). For reference, data shown for cells expressing wild type CFTR. Mean ± S.E.M., n = 3.
(§5) Short-circuit current was measured on cells cultured on Snapwell clear permeable supports (Corning) as described[10],[11]. Hemichambers were connected to a DVC-1000 voltage clamp (World Precision Instruments Inc., Sarasota, FL) via Ag/AgCl electrodes and 3 M KCl agar bridges for recording of the short-circuit current. For human airway epithelial cells, symmetrical HCO3^−-buffered solutions (in mM: 120 NaCl, 5 KCl, 1 MgCl2, 1 CaCl2, 5 Hepes, 25 NaHCO3, 10 glucose, pH 7.4) for basolateral and apical side were used. For FRT cells, the basolateral membrane was permeabilized with 250 μg/ml amphotericin B, and experiments were done with a chloride gradient using a HCO3^−-buffered solutions (Basolateral (mM): 120 NaCl, 5 KCl, 1 MgCl2, 1 CaCl2, 5 Hepes, 25 NaHCO3, 10 glucose, pH 7.4; apical (mM): 60 NaCl, 60 mM sodium gluconate, 5 KCl, 1 MgCl2, 1 CaCl2, 5 Hepes, 25 NaHCO3, 10 glucose, pH 7.4). All cells were equilibrated with 95% O2, 5% CO2 and maintained at 37 °C during experiments.

The target of experiment [4] is T4, S492F-CFTR (Homo sapiens, UniProt P13569, S492F).
T4 construct: expressed in transfected cells; host or cells: Fischer rat thyroid (FRT) cells; gift from Drs; Andras Rab and Jeong Hong (Emory University)
T4 sequence (P13569 whole entry S492F): as the sequence (P13569 whole entry W1282C) above, with S492F, C1282W counted along it
In words: Short-circuit current in FRT cells expressing S492F-CFTR. Particulars: 20 µM forskolin, 5 µM VX-770, 20 µM ASP-11, 3 µM VX-809 for 18–24 h. The procedure:
as §1, §4
as §5, with “All cells were equilibrated with 95% O2, 5% CO2 and maintained at 37 °C during experiments.” left out

The target in experiment [5] is T5, N1303K-CFTR (Homo sapiens, UniProt P13569, N1303K).
T5 construct: expressed in transfected cells
T5 sequence (P13569 whole entry N1303K): as the sequence (P13569 whole entry W1282C) above, with C1282W, N1303K counted along it
Kind of experiment: Short-circuit current in primary human bronchial epithelial cell cultures from a N1303K homozygous CF subject. The method, then: To test the efficacy of new co-potentiators in human airway cell models, short-circuit current was measured in 16HBE14o- human airway epithelial cells in which the endogenous CFTR gene was edited to contain the N1303K mutation (16HBE-N1303Kge[21]) and in primary cultures of human bronchial epithelial cells from a N1303K homozygous CF subject. Addition of forskolin and then VX-770 to 16HBE-N1303Kge cells gave a limited response (Fig. 6A). Subsequent addition of CP-A061 or CP-D123 produced CFTRinh-172-inhibitable responses of ~10 μA/cm^2, ~6-fold greater that that produced by VX-770 alone. Increased short-circuit current was also found for these co-potentiators in the primary human bronchial epithelial cell cultures (Fig. 6B).
Figure 6 N1303K-CFTR activity in human airway epithelial cell cultures. (A) Short-circuit current in gene-edited 16HBE14o- cells expressing N1303K-CFTR. Concentrations: 20 µM amiloride, 20 µM forskolin, 5 µM VX-770, 20 µM CP-A061 and CP-D123, and 10 µM CFTRinh-172. Representative original curves (left and center) and summary of changes in current (∆Isc) (right). Mean ± S.E.M., n = 3, *P < 0.05). (B) Short-circuit current in primary cultures of human bronchial epithelial cells from a homozygous N1303K-CFTR CF subject. […]
as §3

Consider three molecules from paper PMC6881293, “Nanomolar-potency ‘co-potentiator’ therapy for cystic fibrosis caused by a defined subset of minimal function CFTR mutants” (Scientific Reports, 2019).

T1 sequence (P13569 whole entry W1282L): as the sequence (P13569 whole entry W1282C) above, with C1282L counted along it
T3 sequence (P13569 1-1161 limits assumed): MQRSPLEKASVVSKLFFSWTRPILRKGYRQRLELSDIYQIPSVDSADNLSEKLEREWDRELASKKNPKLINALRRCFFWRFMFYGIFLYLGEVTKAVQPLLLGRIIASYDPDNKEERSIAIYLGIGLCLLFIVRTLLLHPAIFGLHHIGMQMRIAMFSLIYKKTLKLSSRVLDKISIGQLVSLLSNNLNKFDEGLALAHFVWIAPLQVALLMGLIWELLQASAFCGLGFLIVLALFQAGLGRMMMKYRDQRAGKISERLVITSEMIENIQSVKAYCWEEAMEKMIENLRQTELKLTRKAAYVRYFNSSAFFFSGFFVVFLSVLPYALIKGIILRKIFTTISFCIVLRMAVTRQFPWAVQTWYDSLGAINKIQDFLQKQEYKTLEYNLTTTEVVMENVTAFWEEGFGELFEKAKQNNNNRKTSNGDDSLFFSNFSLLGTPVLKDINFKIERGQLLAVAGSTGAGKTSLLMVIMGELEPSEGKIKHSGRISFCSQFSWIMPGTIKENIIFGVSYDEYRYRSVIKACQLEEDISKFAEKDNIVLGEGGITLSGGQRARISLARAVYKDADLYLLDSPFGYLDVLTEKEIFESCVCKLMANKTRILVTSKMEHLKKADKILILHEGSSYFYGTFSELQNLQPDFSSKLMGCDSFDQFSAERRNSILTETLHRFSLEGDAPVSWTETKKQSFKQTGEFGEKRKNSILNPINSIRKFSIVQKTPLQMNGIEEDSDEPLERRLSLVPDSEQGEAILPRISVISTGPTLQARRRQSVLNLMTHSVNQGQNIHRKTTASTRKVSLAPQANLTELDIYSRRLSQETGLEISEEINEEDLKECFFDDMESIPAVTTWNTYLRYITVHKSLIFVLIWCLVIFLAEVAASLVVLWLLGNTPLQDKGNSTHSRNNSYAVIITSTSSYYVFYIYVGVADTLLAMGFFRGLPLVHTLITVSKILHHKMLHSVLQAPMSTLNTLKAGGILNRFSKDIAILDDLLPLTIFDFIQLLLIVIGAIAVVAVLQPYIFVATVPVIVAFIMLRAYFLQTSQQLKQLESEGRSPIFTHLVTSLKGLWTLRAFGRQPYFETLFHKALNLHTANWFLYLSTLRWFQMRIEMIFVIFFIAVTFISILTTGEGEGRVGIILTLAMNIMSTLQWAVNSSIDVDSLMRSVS

For the molecule `CCCCn1cc(S(=O)(=O)Nc2ccc(CC)cc2)c2cccnc21` [ASP-11], the “effect on short-circuit current after forskolin” value in experiment [1] is “little additional”; in experiment [2] it was “significant further effects”. Also, the “short-circuit current response to modulator” value is given as “did not respond” in experiment [3] and “no response” in experiment [4].
Turning to `COc1ccc2[nH]c3c(c2c1)CCNC31CCN(Cc2ccc(F)cc2F)CC1` [Compound A061], the “current as equivalent of wildtype CFTR activity” value in experiment [5] (estimate based on similarly cultured non-CF and CF human airway epithelial cell cultures) is ~ 20%. Moreover, in experiment [5] (primary human bronchial cell cultures, homozygous N1303K-CFTR subject, 20 µM compound after forskolin and 5 µM VX-770), the CFTRinh-172-inhibitable current was ~ 2.5 μA/cm^2.
On to `CC(C)(C)c1cc(C(C)(C)C)c(NC(=O)c2c[nH]c3ccccc3c2=O)cc1O` [VX-770, ivacaftor], for which the “effect on short-circuit current after forskolin” value is listed as “little additional” in experiment [1] and “significant further effects” in experiment [2]. Further, the figures for the “short-circuit current response to modulator” value in experiment [3] and in experiment [4] were “did not respond” and “no response”, respectively.
